Test results published in patent US20160354402A1, “COMPOSITIONS” (GLOBALACORN LTD, priority 2013, published 2016).
“Also recorded” adds a separate entry of the source.

Columns and labels:
[1] = tested on: CA1 pyramidal neurons in hippocampal slices; test: Ex vivo murine hippocampal slice model of epilepsy (picrotoxin, Mg2+-free); format: cell-based, mouse; conditions: epileptic conditions: picrotoxin 100 μM, Mg2+ free perfusion solution; dose response
Method: Slices were prepared and used as described previously (Melnik S, Wright M, Tanner J A, Tsintsadze T, Tsintsadze V, Miller A D, Lozovaya N (2006) Diadenosine polyphosphate analog controls postsynaptic excitation in CA3-CA1 synapses via a nitric oxide-dependent mechanism. J Pharmacol Exp Ther 318 (2):579-588. doi:10.1124/jpet.105.097642).
Slices were prepared as described previously (Melnik S, Wright M, Tanner J A, Tsintsadze T, Tsintsadze V, Miller A D, Lozovaya N (2006) Diadenosine polyphosphate analog controls postsynaptic excitation in CA3-CA1 synapses via a nitric oxide-dependent mechanism. J Pharmacol Exp Ther 318 (2):579-588. doi:10.1124/jpet.105.097642). Addition of picrotoxin (100 μM) and removal of Mg^2+ in the perfusion solution induced spontaneous epileptiform events lasted for 5-10 s (FIG. 7). […] In the continued presence of picrotoxin and Mg^2+ free extracellular solution, bursting at this rate continued for at least 2 h. The effects of AppCH2ppA administration were monitored post slice administration ex vivo (FIGS. 8 and 9a).

[2] = tested on: L5 interneurons in cortical slices from Tsc1+/− mice; test: Ex vivo whole-cell patch-clamp recordings in cortical slices from Tsc1+/− mice; format: cell-based, mouse
Method: Wild type and Tsc1^+/− mice (P14-P16) were anaesthetized with ether and killed by decapitation in agreement with the European Directive 86/609/EEC requirements. The brain was rapidly removed and placed in an oxygenated ice-cold saline buffer. Transverse 300 μm-thick coronal slices were cut using a vibratome (Leica VT1000S; Leica Microsystems Inc., Deerfield, Ill.) in ice-cold protecting solution oxygenated with 95% O2 and 5% of CO2. Prior to recording, slices were incubated in an artificial cerebrospinal fluid (ACSF) solution containing (in mM): 125 NaCl, 3.5 KCl, 1 CaCl2, 2 MgCl2, 1.25 NaH2PO4, 26 NaHCO3, and 10 glucose, equilibrated at pH 7.3 with 95% O2 and 5% CO2 at room temperature (22-25° C.) for at least 1 h to allow recovery.
Slices were transferred to the recording chamber and perfused with oxygenated recording ACSF at 3 ml/min. Neurons were visualized using infrared differential interference contrast (IR-DIC) microscopy. […] It was not compensated and was monitored during each experiment. […]
Wild type and Tsc1^+/− mice (P14-P16) were anaesthetized, their brains removed rapidly and placed in an oxygenated ice-cold saline buffer. […] The effects of AppCH2ppA administration were monitored post slice administration ex vivo. […]

Tsc1+/− mice = test: In vivo intracortical EEG recordings of spontaneous seizures in Tsc1+/− mice (mouse model of Tuberous Sclerosis); conditions: i.p. injection
Method: This study followed the Institut National de la Santé et de la Recherche Médicale guidelines for animal care. All experiments were performed on postnatal days P9-P20 of inbred C57Bl6 strain of both sexes of Tsc1^mut/wt (Tsc1^+/−) mice issued from breeding of C57Bl6 Tsc1^wt females and Tsc1^mut/wt males Tsc1^mut/wt.
Surgery was performed under isoflurane anesthesia. In brief, the skull of the animal was cleaned of skin and periosteum. The skull was covered by glue and dental cement except for a 4-9 mm^2 window above the somatosensory cortex from one or two hemispheres. Two plastic bars were fixed to the nasal and occipital bones of the pups head by dental cement. After surgery, animals were warmed, and left for an hour for recovery from anesthesia. During recordings, the head was fixed to the frame of the stereotaxic apparatus by attached bars; animals were surrounded by a cotton nest and heated via a thermal pad (36.6° C.-37.7° C.). […]
Electroencephalography (EEG) recordings were performed in non-anesthetized head-restrained Tsc1^+/− and control Tsc1^wt mice. […] Recordings were analyzed off-line using Clampfit and MATLAB software. […] During EEG recordings animals were monitored visually to determine behavioral correlates of each electrographic epileptic discharge. […] Local field potentials were analyzed by the custom-written, MATLAB based programs. […]

Compound	antiepileptic effect on frequency of epileptiform discharges [1]	spontaneous glutamatergic activity from L5 interneurons ([2]; bath administration, 10 μM, Vh=−70 mV, cortical slices from Tsc1+/− mice)	seizure like electrical impulses on individual cortical neurons ([2]; ex vivo, cortical slices, P14-P16 mice)	anti-epileptic effect (spontaneous seizure activity) (Tsc1+/− mice; 30 μM in 200 μl (6 nmol; 300 nmol/kg or 0.25 mg/kg), Tsc1+/− mice)	anti-epileptic effect (spontaneous seizure activity) (Tsc1+/− mice; 100 μM in 200 μl (20 nmol; 1000 nmol/kg or 0.84 mg/kg), Tsc1+/− mice P14-P16)
Nc1ncnc2c1ncn2[C@@H]1O[C@H](COP(=O)(O)OP(=O)(O)NP(=O)(O)OP(=O)(O)OC[C@H]2O[C@@H](n3cnc4c(N)ncnc43)[C@H](O)[C@@H]2O)[C@@H](O)[C@H]1O [AppNHppA]	completely inactive				
Nc1ncnc2c1ncn2[C@@H]1O[C@H](COP(=O)(O)OP(=O)(O)CP(=O)(O)OP(=O)(O)OC[C@H]2O[C@@H](n3cnc4c(N)ncnc43)C(O)C2O)C(O)C1O (some centres unmarked) [AppCH2ppA]		desensitizes glutamatergic activity relative to control	inhibits seizure like electrical impulses	partial	eliminates seizures virtually completely; also recorded: essentially complete anti-epileptic effect
